Patent US20040097549A1, “Method and composition for administering a cyclooxygenase-2 inhibitor” (Pharmacia Corporation, priority 1999, published 2004)

Key:
[1] = Treatment of a dog with arthritic-related symptoms (Example 7); assay type: in vivo; conditions: 15-year old dog about 25 kg, commercially-available drug therapy for nine months; some worsening noted
Description: A 15-year old, black Labrador Retriever, mixed-heritage, neutered-male dog weighing about 25 kg has a history of arthritic-related symptoms that makes it difficult, or impossible, for the dog to stand, walk, or ascend or descend stairs. […] Over a subsequent period of six months, this dog is treated with a cyclooxygenase-2 inhibitor in the manner described as follows.
About 125 mg of a 95% pure, selective cyclooxygenase-2 inhibitor in white crystalline powder form is dispersed in a teaspoon of olive oil which is then spread over the surface of a single slice of commercially-available wheat bread. The bread is cut into quarters, all of which is then fed to the dog. The dog is observed to consume the entire slice of bread. Within ten (10) days of initial feeding of this dog, as described above, there is observed noticeable improvement in alleviation of arthritic-related symptoms. For example, the dog is observed to walk easily, descend stairs, […], and be less lethargic in day-to-day activities.

[2] = Cynomolgus monkeys, orally for six weeks; cited from earlier work

SMILES | improvement in the dog's arthritic-related symptoms [1] | Toxicity [2]
CC(C(=O)O)c1ccc2c(c1)[nH]c1ccc(Cl)cc12 (centres unmarked) [Rimadyl carprofan] | without improvement | 
CN1C(C(=O)Nc2ccccn2)=C(O)c2sc(Cl)cc2S1(=O)=O [lomoxicam] |  | monkeys: 1-2 mg/kg/day
